Tests used:
Format in all cases: cell-based
Pseudomonas aeruginosa = experiment: Agar plate disc-diffusion, antibacterial, Pseudomonas aeruginosa; conditions: nutrient agar, 37° C., 48 hours, DMSO zone subtracted
Description: (§1) The agar plate disc-diffusion method was applied. […] The discs were then placed onto the surface of agar plates (nutrient agar for bacteria and Sabouraud's dextrose agar for fungi) seeded with the test organism. Each plate contained 15 mL of the agar medium, previously seeded with 0.2 mL of the broth culture of each organism pregrown for 18 hours. The plates were incubated at 37° C. for 48 hours, and 72 hours for fungi. The inhibition zones was measured in mm. Discs impregnated with DMSO were used as a control, and its inhibition zone was subtracted from the tested compound actual inhibition zone.
(§2) Their antibacterial screened against gram positive bacteria namely Bacillus cereus and Staphylococcus aureus and gram-negative bacterial strains namely Pseudomonas aeruginosa and Escherichia coli, while their antifungal activity screened against Aspergillus flavus and Chrysosporium keratinophilum as shown in tables 1 and 2 using ciprofloxacin as a reference.

[1] = tested on: Chrysosporium keratinophilum; experiment: Agar plate disc-diffusion, antifungal, Chrysosporium keratinophilum; conditions: Sabouraud's dextrose agar, 37° C., 72 hours, DMSO zone subtracted
Description: The agar plate disc-diffusion method was applied. Sterilized filter papers (6 mm in diameter) were wetted with 10 μL of a solution of 5-(4,5-bis(4-bromophenyl)-2-(4-chlorophenyl)-1H-imidazol-1-yl)pentanoic acid (V) to be tested, containing 10 mg/mL in DMSO, and the discs were allowed to air dry. The discs were then placed onto the surface of agar plates (nutrient agar for bacteria and Sabouraud's dextrose agar for fungi) seeded with the test organism. Each plate contained 15 mL of the agar medium, previously seeded with 0.2 mL of the broth culture of each organism pregrown for 18 hours. The plates were incubated at 37° C. for 48 hours, and 72 hours for fungi. The inhibition zones was measured in mm. Discs impregnated with DMSO were used as a control, and its inhibition zone was subtracted from the tested compound actual inhibition zone.
as §2

Bacillus cereus = experiment: Agar plate disc-diffusion, antibacterial, Bacillus cereus; conditions: nutrient agar, 37° C., 48 hours, DMSO zone subtracted
Description: as §1, §2

Escherichia coli = experiment: Agar plate disc-diffusion, antibacterial, Escherichia coli; conditions: nutrient agar, 37° C., 48 hours, DMSO zone subtracted
Description: as §1, §2

Aspergillus flavus = experiment: Agar plate disc-diffusion, antifungal, Aspergillus flavus; conditions: Sabouraud's dextrose agar, 37° C., 72 hours, DMSO zone subtracted; for inhibition zone, Aspergillus flavus, B: B = concentration of comp. = 30,000 μL
Description: as §1, §2

Staphylococcus aureus = experiment: Agar plate disc-diffusion, antibacterial, Staphylococcus aureus; conditions: nutrient agar, 37° C., 48 hours, DMSO zone subtracted; for inhibition zone, Staphylococcus aureus, A: A = concentration of comp. = 10,000 μL
Description: as §1, §2

[2] = B = concentration of comp. = 30,000 μL
[3] = C = concentration of comp. = 50,000 μL
[4] = A = concentration of comp. = 10,000 μL

SMILES: O=C(O)CCCCn1c(-c2ccc(Cl)cc2)nc(-c2ccc(Br)cc2)c1-c1ccc(Br)cc1 [V, 5-(4,5-bis(4-bromophenyl)-2-(4-chlorophenyl)-1H-imidazol-1-yl)pentanoic acid]
- inhibition zone, Pseudomonas aeruginosa, A (Pseudomonas aeruginosa; A = concentration of comp. = 10 mg/mL): 24 mm
- inhibition zone, Pseudomonas aeruginosa, B (Pseudomonas aeruginosa; [2]): 30 mm
- inhibition zone, Pseudomonas aeruginosa, C (Pseudomonas aeruginosa; [3]): 44 mm
- inhibition zone, Chrysosporium keratinophilum, A [1, 4]: 26 mm
- inhibition zone, Chrysosporium keratinophilum, B [1, 2]: 27 mm
- inhibition zone, Chrysosporium keratinophilum, C [1, 3]: 44 mm
- inhibition zone, Bacillus Cereus, A (Bacillus cereus; [4]): 24 mm
- inhibition zone, Bacillus Cereus, B (Bacillus cereus; [2]): 26 mm
- inhibition zone, Bacillus Cereus, C (Bacillus cereus; [3]): 38 mm
- inhibition zone, Escherichia coli, A (Escherichia coli; [4]): 28 mm
- inhibition zone, Escherichia coli, B (Escherichia coli; [2]): 36 mm
- inhibition zone, Escherichia coli, C (Escherichia coli; [3]): 51 mm
- inhibition zone, Aspergillus flavus, A (Aspergillus flavus; A = concentration of comp. = 10,000 μg/mL): 18 mm
- inhibition zone, Aspergillus flavus, B (Aspergillus flavus): 23 mm
- inhibition zone, Aspergillus flavus, C (Aspergillus flavus; [3]): 31 mm
- inhibition zone, Staphylococcus aureus, A (Staphylococcus aureus): 16 mm
- inhibition zone, Staphylococcus aureus, B (Staphylococcus aureus; [2]): 21 mm
- inhibition zone, Staphylococcus aureus, C (Staphylococcus aureus; [3]): 29 mm

SMILES: O=C(O)c1cn(C2CC2)c2cc(N3CCNCC3)c(F)cc2c1=O [Cip., ciprofloxacin, reference compound]
- inhibition zone, Aspergillus flavus, B (Aspergillus flavus): 32 mm
- inhibition zone, Staphylococcus aureus, A (Staphylococcus aureus): 42 mm
